{"source": "patent US20040265249A1", "about": "“Composition for protecting skin from damaging effects of ultraviolet light” (Desert Whale Jojoba Company, priority 2003, published 2004)", "origin": "cited, not measured here", "conditions": "Yagi K, Ohishi N, 1979"}
{"smiles": "COc1cc(/C=C/C(=O)O)ccc1O", "note": "[ferulic acid]", "values": [{"measurement": "antioxidant action", "value": "can scavenge free radicals"}]}
